The values that follow come from patent US11566231B2, “Physiology and pathophysiology of human gut: intestine-on-chip” (EMULATE, INC., priority 2017, dated 2023).

The subject of series [1] is IL-8. As to the kind of experiment: LPS-induced IL-8 production in Intestine-Chip. In kind it is cell-based, human. The following applies: LPS 100 μg/ml; Rifaximin 50 μg/ml; without stretch.
The subject of series [2] is human PXR. Conditions: human cells; cited from earlier work.

`CO[C@H]1/C=C/O[C@@]2(C)Oc3c(C)c(O)c4c(O)c(c5c(nc6cc(C)ccn65)c4c3C2=O)NC(=O)/C(C)=C\C=C\[C@H](C)[C@H](O)[C@@H](C)[C@@H](O)[C@@H](C)[C@H](OC(C)=O)[C@@H]1C` [Rifaximin]: the IL-8 result in series [1] is “decrease in IL-8”. The “expression of PXR-regulated genes, including CYP3A4 and MDR1” value in series [2] is reported as “enhanced”.
